The record followed here is ChEMBL document CHEMBL1201862, “PubChem BioAssay data set” (2004).

Holding throughout (experiment): NCI tumour cell line growth inhibition, 48 h
Assay [1] concerns UACC-257.
Assay [2] concerns MCF7.
Assay [3] relates to HCT-116.
Assay [4] deals with T47D.
The test system of assay [5] is MOLT-4.
Assay [6] concerns TK-10.
Assay [7] deals with MDA-MB-435.
Assay [8] has as its system RXF 393.
Assay [9] deals with SK-MEL-28.
Assay [10] concerns U-251.
For assay [11], the system named is HT-29.
The test system of assay [12] is SF-295.
Assay [13] deals with COLO 205.
Assay [14] concerns A549.
In assay [15] the test system is HCC 2998.
Assay [16] concerns SK-MEL-2.
Assay [17] has as its system SN12C.
Assay [18] relates to HL-60.

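Tested at 5 concentrations; 48 h exposure; 96-well plates; endpoints linearly interpolated, else capped at highest concentration. The concentration for 50% growth inhibition is given as GI50.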 Calls of active or inactive are those of the source. Cut-off read from the data, not from the text of the source: active = GI50 up to about 1.1 µM and inactive = higher.

In the case of `COc1ccc2[nH]c(C(O)(Cc3cccnc3)Cc3cccnc3)cc2c1`, the GI50 in assay [1], in [2], in [3], in [4], in [5] and in [6] was > 100 µM (inactive) each time. The GI50 in assay [7], in [8], in assay [9], in assay [10], in assay [11] and in assay [12] was > 100 µM (inactive) each time. Besides, the GI50 in assay [13], in [14], in assay [15], in assay [16] and in assay [17] was > 100 µM (inactive) in each case.

With `Oc1c(Cl)cc2cc1-c1cc(cc(Cl)c1O)CCc1c(cc(Cl)c(O)c1Cl)-c1cc(Cl)c(c(Cl)c1O)/C=C\2`, the GI50 is 13.6 µM (inactive) in assay [1]; 8.11 µM (inactive) in assay [3]; 8.41 µM (inactive) in assay [4]; 30.2 µM (inactive) in [5]; 8.02 µM (inactive) in assay [7]; 15.2 µM (inactive) in assay [8]. The GI50 in assay [9] is 7.08 µM (inactive); in assay [10], 11.6 µM (inactive); in [11], 11.4 µM (inactive); in assay [13] it was 8.24 µM (inactive); in assay [14] it was 10.6 µM (inactive); in assay [15], 6.98 µM (inactive). Moreover, the results for the GI50 in assay [16] and in assay [18] were 8.81 µM (inactive) and 5.61 µM (inactive), respectively.

In the case of `COc1ccc(COCCOCc2nc(C#N)c(N)o2)cc1`, the GI50 in [1], in assay [2], in assay [3], in [4], in assay [5] and in assay [6] was > 100 µM (inactive) each time. In addition, the GI50 in assay [7], in assay [8], in assay [9], in assay [10], in [11] and in assay [12] was > 100 µM (inactive) each time. The GI50 in [13], in [14], in assay [15], in assay [16], in assay [17] and in assay [18] was > 100 µM (inactive) each time.

On to `COc1ccc(Cc2n[nH]c(Nc3ccc(Br)cc3)nc2=O)cc1OC`, for which the GI50 in [1] was > 100 µM (inactive); in assay [2], 44.6 µM (inactive); in assay [3] it was 64.3 µM (inactive); in [4], 94.2 µM (inactive); in assay [5], 43.1 µM (inactive); in assay [6] it was > 100 µM (inactive). In addition, the GI50 in [7] is 14.2 µM (inactive); in assay [8], > 100 µM (inactive); in assay [9] it was > 89.9 µM (inactive); in assay [10] it was > 100 µM (inactive); in assay [11], > 100 µM (inactive); in assay [12] it was > 100 µM (inactive). The GI50 is > 100 µM (inactive) in [13]; > 100 µM (inactive) in [14]; > 88.1 µM (inactive) in assay [15]; 60.1 µM (inactive) in assay [16]; > 100 µM (inactive) in assay [17]; 57 µM (inactive) in assay [18].

Consider `COc1ccc2c(c1)Oc1cc(O)ccc1[C@@H]2c1ccccc1C(=O)NC(C)c1ccccc1` (some centres not stated), for which the GI50 was 14.8 µM (inactive) in assay [1]; 12.2 µM (inactive) in assay [3]; 5.73 µM (inactive) in assay [5]; 23.7 µM (inactive) in assay [6]; 13.1 µM (inactive) in [8]; 15.4 µM (inactive) in assay [9]. The GI50 in [10] is 15 µM (inactive); in assay [11] it was 15.3 µM (inactive); in [12] it was 13 µM (inactive); in [13], 16.4 µM (inactive); in assay [14], 17.7 µM (inactive); in [15], 11.9 µM (inactive). Also, the GI50 is 18.7 µM (inactive) in assay [16], 14.6 µM (inactive) in assay [17] and 11.3 µM (inactive) in [18].

On to `N#C/C(=C1\SCC(=O)N1c1ccccc1)c1nc2ccccc2[nH]1`, for which the GI50 in assay [1], in assay [3], in assay [5], in assay [6], in assay [8] and in [9] was > 100 µM (inactive) in each case. For the same compound, the GI50 in assay [10], in assay [11], in [12], in [13], in assay [14] and in [16] was > 100 µM (inactive) each time. Besides, the GI50 in assay [17] and in assay [18] was > 100 µM (inactive) throughout.

As for `CCOC(=O)C1=C(C)N(NC(N)=O)C2(N)N(NC(N)=O)C(C)=C(C(=O)OCC)C12C#N` (configuration not stated), the GI50 in assay [1], in [3], in [5], in assay [9], in assay [10] and in [11] was > 100 µM (inactive) throughout. Besides, the GI50 in [12], in assay [14], in [15], in assay [16] and in assay [17] was > 100 µM (inactive) throughout.

In the case of `CC(C)(C)CC(C)(C)NCC(O)COc1ccc(C(C)(C)c2ccc(OCC(O)CNC(C)(C)CC(C)(C)C)cc2)cc1` (configuration not stated), the GI50 was 2.37 µM (inactive) in assay [3]; 0.34 µM (active) in assay [5]; 1.82 µM (inactive) in assay [8]; 0.615 µM (active) in assay [9]; 0.7 µM (active) in [10]; 0.403 µM (active) in assay [11]. Further, the GI50 is 1.68 µM (inactive) in [12]; 0.376 µM (active) in [13]; 1.6 µM (inactive) in assay [14]; 0.349 µM (active) in assay [15]; 1.84 µM (inactive) in assay [16]; 1.63 µM (inactive) in [17]. Further, the GI50 in assay [18] is 1.46 µM (inactive).

For the compound `O=C1CCCC2=C1CC1=C(CCCC1=O)N2c1ccccc1C(=O)O`, the GI50 in [2], in assay [5], in [6], in [8], in assay [9] and in assay [10] was > 100 µM (inactive) throughout. Moreover, the GI50 in [11], in assay [14], in assay [15], in assay [17] and in assay [18] was > 100 µM (inactive) in each case.

As to `c1ccc2c(c1)OC(N1CCCC1)c1cnc(N3CCCC3)nc1-2` (configuration not stated), the GI50 was 20.6 µM (inactive) in assay [1]; 18.6 µM (inactive) in assay [2]; 39.2 µM (inactive) in assay [3]; 22.5 µM (inactive) in [4]; 24 µM (inactive) in [5]; 49.2 µM (inactive) in assay [6]. Also, the GI50 in assay [7] was 49.8 µM (inactive); in [8], 20.3 µM (inactive); in [9], 79.6 µM (inactive); in [10], 45.9 µM (inactive); in [11], 36.2 µM (inactive); in assay [12] it was 30.4 µM (inactive). Besides, the GI50 was 31.3 µM (inactive) in assay [13], 43.4 µM (inactive) in assay [14], 45.2 µM (inactive) in assay [17] and 27.4 µM (inactive) in assay [18].
